Patent publication US20040097454A1, “Method for modulation of cell phenotype” (University Technology Corporation, priority 1999, published 2004)

Tests used:
[1] = tested on: CREB-dependent promoter transactivation in BASMC; experiment: CREB-dependent Gal4-TKluc reporter in BASMC; type: cell-based, bovine; conditions: for CREB-dependent promoter transactivation: insulin 100 nM, glucose 25 mM
Procedure: Isoproterenol is well documented to act through cAMP, yet no studies defining its impact on CREB transactivation in SMCs have been reported. In the next experiment, the ability of ISO to drive a CREB dependent reporter construct was determined. BASMC were transfected with Gal4-TKluc plasmid containing the Gal4 promoter and a thymidine kinase enhancer upstream of the gene encoding a luciferase reporter. These cells were cotransfected with control plasmid (pUC19), a plasmid encoding the Gal4 protein alone, or plasmids encoding chimeric Gal4 proteins with either wild type CRF-B (pZI-Gal4-TKluc) or Ser 133 mutated CREB (SeYI33). […] Of note, basal PKA mediated CRE reporter transcription is very high in these cells and is blocked by the PKA inhibitor H89.

[2] = tested on: bovine aorta smooth muscle cells (BASMC); experiment: BASMC morphology and α SM actin content on PKA inhibition; type: cell-based
Excerpt: To confirm literature reports of the importance of cAMP for the smooth muscle cell (SMC) phenotype, bovine aorta smooth muscle cells (BASMC) were examined for changes in morphology and migration upon modulation of PKA activity. These cells are from a single vascular bed and harvested from an ingrown strain of cattle. BASMC are an established model of vascular smooth muscle tissue in culture (Cucina et al., 1999, J. Surg. Res., 82:61-66; Frid et al., 1997, Circ. Res., 81:940-952; Frid et al., Arterioscler Throb Vasc Biol 17:1203-1209,1997; Hatzi et al., 1999, Eur. J. Biochem., 260:825-832; Stenmark et al., Chest 114:82S-90S, 1998; Takahashi et al., Circ Res 84:543-550, 1999; Underwood et al., 1998, J. Vasc. Res., 35:449-460), and are useful for assessing vascular smooth muscle cell proliferation, migration and contraction. […] Specifically, H89 results in loss of SMC “spindle shape” representative of differentiated, contractile phenotype.

[3] = tested on: P-CREB/CREB in BASMC; experiment: Acute CREB phosphorylation in BASMC; type: cell-based, bovine; conditions: acute treatment, confluent BASMC serum starved 48 hours
Procedure: A series of experiments was performed to determine the ability of insulin, IGF-1 and ISO to acutely enhance CREB phosphorylation in BASMC. BASMC were grown to confluence, ss for 48 hours, and acutely treated with insulin, IGF-1, or Iso in the concentrations noted in FIG. 12A-12C.

[4] = tested on: BASMC migration; experiment: SMC migration, Boyden chamber; type: cell-based, bovine; conditions: high glucose 25 mM vs 5 mM, 48 h
Procedure: BASMC were grown to 70% confluence and serum starved for 48 hours. Cells were then treated with 0.1 uM PDGF and assessed for thymidine incorporation (FIG. 10A) and migration (FIG. 10B) as follows. […] Migratory behavior of SMC cells was assessed using a 12 well micro-Boyden chamber apparatus (Transwell Apparatus, Costar, Corning, N.Y.). […] Wells were covered with a Type I collagen-coated PVP-free filter with 8 mm pores (Transwell Apparatus, Costar, Corning, N.Y.). Trypsinized cells were resuspended in serum-free medium containing either chemotactic compounds or vehicle, and plated at a density of 25,000 or 50,000 cells per well in a volume of 100 μL. At the end of the incubation, cells attached to the filter were fixed and stained in Dif Quick (American flospital Supply Corp., McGraw Park, Ill.).

[5] = tested on: ICER in BASMC; experiment: ICER protein and mRNA content in BASMC exposed to glucose and insulin; type: cell-based, bovine; conditions: for ICER protein content: 72 hour; for ICER mRNA: glucose (5 and 25 mM) and insulin (3 and 100 nM), 72 h
Procedure: Next, BASMCs were exposed to either 3 nM or 100 nM insulin for 72 hours and analyzed for mRNA content of ICER. ICER protein was induced by physiological doses of glucose and insulin. […] BASMC were cultured to 90% confluence and treated with glucose (5 and 25 mM) and insulin ([…]) for 72 h. Total RNA was isolated from these cells using Qiagen's RNeasy kit. RNA samples were fractionated on denaturing 1.2% agarose-formaldehyde gels and transferred to Hybond N+ membrane. ICER IIγ CDNA probe was labeled with thermostable alkaline phosphatase using the AlkPhos-Direct kit from Amersham Lifesciences (Buckinghamshire, England). Hybridization, washing and detection by CDP-Star were performed according to manufacturer's protocol.

[6] = tested on: CREB in BASMC; experiment: CREB content and phosphorylation in BASMC exposed to high glucose or high insulin; type: cell-based, bovine; conditions: 72 hours exposure
Procedure: Studies were undertaken in BASMC to examine the impact of high glucose (HG) and/or high insulin (HI) on CREB and ICER content. BASMC were grown to confluence, ss for 24 hours, then treated with the concentrations of insulin and/or glucose.

[7] = tested on: NIH 3T3-L1 preadipocyte cell lines; experiment: Adipocyte differentiation assay, Oil Red O staining of triacylglycerol; type: cell-based
Procedure: Differentiation assays were performed on cells growing on 8 chamber microscope slides. […] The cells were treated with a differentiation mixture, muristerone, or both. […] Muristerone was added to medium at a final concentration of 10 uM for the entire 10 day differentiation period. After 10 days in culture, the cells were stained with Oil Red 0 to visualize triacylglycerol vesicles as previously described (Klemm et al., 1998, J. Biol. Chem., 273:917-923), and counterstained with hematoxylin to visualize cell morphology. Cells were observed by brightfield microscopy and representative fields, were photographed.

[8] = tested on: putative CRE sequences of adipocyte-specific gene promoters; experiment: Gel retardation assay of recombinant CREB with putative CRE oligonucleotides; type: binding; conditions: twenty base pair double stranded 32P-labeled oligonucleotides
Procedure: Next, the ability of purified, recombinant CREB to bind double stranded oligonucleotide probes of these sequences in gel retardation assays was tested as previously described in Klemm et al., 1998, J. Biol. Chem., 273:917-923. Twenty base pair, double stranded nucleotides, end labeled with y32P-ATP and polynucleotide kinase, were incubated with purified, recombinant 30 CREB protein. The reactions were separated on nondenaturing, 6% polyacrylamide gels and exposed to Kodak X-ARomat film. […] In these experiments, 5 ug of nuclear extract protein prepared from 3T3-L1 fibroblasts was incubated with the indicated, labeled oligonucleotides either in the absence (−) or presence (+) of CREB specific antibody. The reactions were separated on polyacrylamide gels as described above and exposed to film. […] Obviously, CREB may not bind to some of the tested sequences in the context of their native promoter environment or under conditions found within the cell. Alternately, CREB may interact with the putative CRE sites we have tested in the PPARγ2 and CEBP α promoters under different conditions, or perhaps bind to other sequences in these promoters not identified by visual inspection.

[9] = tested on: BASMC; experiment: Cell cycle phase by fluorescence flow cytometry (Krishan's stain) in BASMC with inducible WT CREB; type: cell-based, bovine; conditions: muristerone-induced expression; 0.1 or 10% serum
Procedure: BASMC were stably transfected with the muristerone-inducible wild-type CREB (WT CREB) expression vector. They were then exposed to serum at 0.1 or 10% with and with exposure to muristerone to induce CREB expression. FIGS. 8A-8D show control cells on the left and muristerone cells on the right. Cells were incubated with Krishan's stain and subjected to fluorescence flow cytometry to assess proliferative capacity to determine phase in the cell cycle. […] This peak was smaller in the cells incubated in low serum. […] The stably transfected clone served as its own control. Preliminary studies were next undertaken to investigate the impact of adenoviral infection with constitutively active CREB (adVP16 CREB) on CRE driven gene expression, proliferation, and migration.

## O=S(=O)(NCCNC/C=C/c1ccc(Br)cc1)c1cccc2cnccc12 [H89]
[1]
  basal PKA mediated CRE reporter transcription: blocked
[1]; PKA inhibitor treatment
  endogenous CREB kinase activity (Gal4-CREB reporter): attenuates high endogenous CREB kinase activity
[2]; 0-10 uM, 72 hours
  α SM actin content: decreased α SM actin content
[2]; 10 uM, 4, 8 and 24 hours, relative to untreated control
  cellular morphology: significant alterations in cellular morphology

## CC(C)NCC(O)c1ccc(O)c(O)c1 (centres unmarked) [Iso, Isoproterenol]
[3]
  P-CREB/CREB content: acutely increases P-CREB/CREB content

## OC[C@H]1OC(O)[C@H](O)[C@@H](O)[C@@H]1O (some centres unmarked) [glucose]
[1]
  CREB-dependent promoter transactivation: attenuates this activity
[4]
  cell migration in Boyden Chamber: increased cell migration
[5]
  ICER protein content: induced ICER protein
  ICER mRNA: increase in ICER mRNA
[6]
  CREB phosphorylation (PCREB): delayed increases in PCREB
  change in CREB protein content: −32%

## CC(C)CC[C@@H](O)[C@](C)(O)[C@H]1CC[C@@]2(O)C3=CC(=O)[C@]4(O)C[C@@H](O)[C@@H](O)C[C@]4(C)[C@H]3[C@H](O)C[C@]12C [muristerone, reference compound]
[7]; control cells (pVgRXR, pIND-LacZ), 10 uM muristerone alone, 10 days
  triacylglycerol accumulation (Oil Red O) in control cells: No triacylglycerol accumulation

## IGF-1: insulin growth factor I
[3]
  P-CREB/CREB content: acutely increases P-CREB/CREB content

## Recombinant CREB: purified, recombinant CREB protein
[8]
  binding to promoter probes of PEPCK, FABP, FAS, SCD and CEBP genes: able to bind

## WT CREB: wild-type CREB expressed from muristerone-inducible vector or adenovirus
[9]
  cell cycle phase: cell cycle arrest

## insulin: insulin; high insulin (HI)
[3]
  P-CREB/CREB content: acutely increases P-CREB/CREB content
[1]; PKA inhibited with H89
  transcriptional activation of CREB in presence of H89: clear dose-dependent transcriptional activation of CREB
[1]
  CREB-dependent promoter transactivation: increases CREB-dependent promoter transactivation
[7]; muristerone induced cells also treated with insulin, versus muristerone alone
  triacylglycerol accumulation in VP16-CREB-expressing cells: triacylglycerol accumulation was enhanced
[5]
  ICER protein content: decreased ICER content
  ICER mRNA: increase in ICER mRNA
[6]
  CREB phosphorylation (PCREB): increased CREB phosphorylation
  change in CREB protein content: −24%
